Columns and labels:
Format in all cases: in vivo
[1] = test system: barnyardgrass (Echinochloa crus-galli); assay: Test A greenhouse herbicide test, pre- and postemergence
In short: (§1)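 Seeds sown in loam–sand blend got a preemergence directed soil spray of compound in non-phytotoxic solvent with surfactant. Postemergence treatment was given at 2–10 cm, one- to two-leaf stage. After ~10 d in greenhouse, injury was rated visually vs untreated controls, 0 (no effect) to 100 (complete control).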

corn (Zea mays) = assay: as above; details: Postemergence; for Corn plant response rating: 0 to 100 scale, 0 is no effect, 100 is complete control
In short: as §1

[2] = test system: foxtail, giant (giant foxtail, Setaria faberii); assay: as above
In short: as §1

kochia (Kochia scoparia) = assay: as above
In short: as §1

[3] = test system: pigweed (Amaranthus retroflexus); assay: as above
In short: as §1

[4] = test system: ragweed (common ragweed, Ambrosia elatior); assay: as above
In short: as §1

[5] = test system: ryegrass, Italian (Italian ryegrass, Lolium multiflorum); assay: as above
In short: as §1

[6] = test system: wheat (Triticum aestivum); assay: as above; details: Postemergence; for Wheat plant response rating: 0 to 100 scale, 0 is no effect, 100 is complete control
In short: as §1

[7] = test system: blackgrass (Alopecurus myosuroides); assay: Test A greenhouse herbicide test, postemergence; details: for Blackgrass plant response rating: 0 to 100 scale, 0 is no effect, 100 is complete control
In short: (§2)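 Plants grown in loam soil/sand blend pots were treated postemergence at 2 to 10 cm height, one- to two-leaf stage, with formulated test chemicals. After approximately 10 d in a greenhouse, injury was rated visually against untreated controls on a 0 to 100 scale (0 no effect, 100 complete control).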

[8] = test system: galium (catchweed bedstraw, Galium aparine); assay: Test A greenhouse herbicide test, postemergence; details: for Galium plant response rating: 0 to 100 scale, 0 is no effect, 100 is complete control
In short: as §2

[9] = test system: barnyardgrass (Echinochloa crus-galli); assay: Test B flooded paddy test; details: 250 g ai/ha, Flood; visual rating on scale of 0 to 100 where 0 is no effect and 100 is complete control; 13 to 15 d after treatment
In short: (§3)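 Plants at the 2-leaf stage were flooded to 3 cm above soil, and test compounds were applied directly into the paddy water, which was held at that depth throughout. After 13 to 15 d in a greenhouse, injury was rated visually against untreated controls on a 0–100 scale (0 no effect, 100 complete control).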

[10] = test system: ducksalad (Heteranthera limosa); assay: Test B flooded paddy test; details: 250 g ai/ha, Flood; visual rating on scale of 0 to 100 where 0 is no effect and 100 is complete control; 13 to 15 d after treatment
In short: as §3

rice (Oryza sativa) = assay: Test B flooded paddy test; details: 250 g ai/ha, Flood; visual rating on scale of 0 to 100 where 0 is no effect and 100 is complete control; 13 to 15 d after treatment
In short: as §3

[11] = test system: sedge, umbrella (small-flower umbrella sedge, Cyperus difformis); assay: Test B flooded paddy test; details: 250 g ai/ha, Flood; visual rating on scale of 0 to 100 where 0 is no effect and 100 is complete control; 13 to 15 d after treatment
In short: as §3

[12] = Postemergence, 125 g ai/ha, 0 to 100 scale where 0 is no effect and 100 is complete control
[13] = Postemergence, 500 g ai/ha, 0 to 100 scale, 0 is no effect, 100 is complete control
[14] = Preemergence, 125 g ai/ha, 0 to 100 scale where 0 is no effect and 100 is complete control
[15] = Preemergence, 500 g ai/ha, 0 to 100 scale, 0 no effect, 100 complete control
[16] = 125 g ai/ha, 0 to 100 scale where 0 is no effect and 100 is complete control
[17] = Preemergence, 500 g ai/ha, 0 to 100 scale where 0 is no effect and 100 is complete control
[18] = Postemergence, 500 g ai/ha, visual rating after approx. 10 d, 0 to 100 scale (0 no effect, 100 complete control)
[19] = 500 g ai/ha, visual rating after approx. 10 d, 0 to 100 scale (0 no effect, 100 complete control)
[20] = Postemergence, 125 g ai/ha, visual rating after approx. 10 d, 0 to 100 scale (0 no effect, 100 complete control)
[21] = 125 g ai/ha, visual rating after approx. 10 d, 0 to 100 scale (0 no effect, 100 complete control)

| Compound | Plant response rating, Barnyardgrass [1, 12] | Barnyardgrass plant response rating [1, 13] | Barnyardgrass plant response rating [1, 14] | Plant response rating, Corn (corn (Zea mays); [16]) | Corn plant response rating (corn (Zea mays); 500 g ai/ha) | Plant response rating, Foxtail, Giant [2, 12] | Foxtail, Giant plant response rating [2, 13] | Foxtail, Giant plant response rating [2, 14] | Plant response rating, Kochia (kochia (Kochia scoparia); [12]) | Kochia plant response rating (kochia (Kochia scoparia); [13]) | Kochia plant response rating (kochia (Kochia scoparia); [14]) | Pigweed plant response rating [3, 14] | Ragweed plant response rating [4, 14] | Plant response rating, Ryegrass, Italian [5, 12] | Ryegrass, Italian plant response rating [5, 14] | Plant response rating, Wheat [6, 16] | Plant response rating, Barnyardgrass [9] | Plant response rating, Ducksalad [10] | Plant response rating, Rice (rice (Oryza sativa)) | Plant response rating, Sedge, Umbrella [11] | other results |
| --- | --- | --- | --- | --- | --- | --- | --- | --- | --- | --- | --- | --- | --- | --- | --- | --- | --- | --- | --- | --- | --- |
| Cc1sc2ccccc2c1-c1c(O)cnn(C)c1=O [Compound 48] | 10 | 50 | 0 | 0 | 0 | 50 | 60 | 0 | 70 | 80 | 0 | 30 | 10 | 50 | 20 | 0 | 0 | 0 | 0 | 0 | Plant response rating, Barnyardgrass [1, 15]: 0; Plant response rating, Foxtail, Giant [2, 15]: 10; Plant response rating, Kochia (kochia (Kochia scoparia); [15]): 10; Plant response rating, Pigweed [3, 12]: 60; Pigweed plant response rating [3, 13]: 70; Plant response rating, Pigweed [3, 15]: 30; Plant response rating, Ragweed [4, 12]: 0; Ragweed plant response rating [4, 13]: 20; Plant response rating, Ragweed [4, 15]: 60; Ryegrass, Italian plant response rating [5, 13]: 60; Plant response rating, Ryegrass, Italian [5, 15]: 60; Wheat plant response rating ([6]; 500 g ai/ha): 0; Plant response rating, Blackgrass [7, 16]: 0; Blackgrass plant response rating ([7]; 500 g ai/ha): 30; Plant response rating, Galium [8, 16]: 90; Galium plant response rating ([8]; 500 g ai/ha): 90 |
| Cc1nn(C)c(=O)c(-c2cccc3ccc(OC(F)F)cc23)c1O [Compound 93] | 0 | 20 | 0 | 0 | 30 | 0 | 10 | 0 | 20 | 30 | 0 | 20 | 0 | 40 | 20 | 0 | 0 | 0 | 0 | 50 | Plant response rating, Barnyardgrass [1, 17]: 0; Plant response rating, Foxtail, Giant [2, 17]: 0; Plant response rating, Kochia (kochia (Kochia scoparia); [17]): 30; Plant response rating, Pigweed [3, 12]: 30; Pigweed plant response rating [3, 13]: 60; Plant response rating, Pigweed [3, 17]: 90; Plant response rating, Ragweed [4, 12]: 0; Ragweed plant response rating [4, 13]: 50; Plant response rating, Ragweed [4, 17]: 20; Ryegrass, Italian plant response rating [5, 13]: 90; Plant response rating, Ryegrass, Italian [5, 17]: 40; Wheat plant response rating ([6]; 500 g ai/ha): 20; Plant response rating, Blackgrass [7, 16]: 0; Blackgrass plant response rating ([7]; 500 g ai/ha): 0; Plant response rating, Galium [8, 16]: 70; Galium plant response rating ([8]; 500 g ai/ha): 90 |
| COC(=O)Oc1c(OC)nn(C)c(=O)c1-c1c(C)sc2ccc(Cl)cc12 [Compound 112] | 20 | – | 10 | 0 | – | 20 | – | 50 | 20 | – | 20 | 90 | 40 | 80 | 90 | 20 | 0 | 0 | 0 | 0 | Plant response rating, Barnyardgrass [1, 18]: 20; Plant response rating, Barnyardgrass [1, 17]: 20; Plant response rating, Corn (corn (Zea mays); [19]): 30; Plant response rating, Foxtail, Giant [2, 18]: 50; Plant response rating, Foxtail, Giant [2, 17]: 60; Plant response rating, Kochia (kochia (Kochia scoparia); [18]): 30; Plant response rating, Kochia (kochia (Kochia scoparia); [17]): 80; Plant response rating, Pigweed [3, 12]: 20; Plant response rating, Pigweed [3, 18]: 30; Plant response rating, Pigweed [3, 17]: 100; Plant response rating, Ragweed [4, 12]: 60; Plant response rating, Ragweed [4, 18]: 80; Plant response rating, Ragweed [4, 17]: 80; Plant response rating, Ryegrass, Italian [5, 18]: 100; Plant response rating, Ryegrass, Italian [5, 17]: 100; Plant response rating, Wheat [6, 19]: 30; Plant response rating, Blackgrass [7, 16]: 40; Plant response rating, Blackgrass [7, 19]: 80; Plant response rating, Galium [8, 16]: 70; Plant response rating, Galium [8, 19]: 90 |
| Cc1ccc2c(c1)c(-c1c(O)c(C)nn(C)c1=O)c(C)n2C [Compound 31] | – | 10 | 0 | – | 0 | – | 10 | 0 | – | 0 | 0 | 0 | 0 | 0 | 0 | 0 | 0 | 0 | 0 | 0 | Plant response rating, Barnyardgrass [1, 20]: 0; Plant response rating, Barnyardgrass [1, 15]: 0; Plant response rating, Corn (corn (Zea mays); [21]): 0; Plant response rating, Foxtail, Giant [2, 20]: 0; Plant response rating, Foxtail, Giant [2, 15]: 0; Plant response rating, Kochia (kochia (Kochia scoparia); [20]): 0; Plant response rating, Kochia (kochia (Kochia scoparia); [15]): 0; Plant response rating, Pigweed [3, 20]: 20; Pigweed plant response rating [3, 13]: 40; Plant response rating, Pigweed [3, 15]: 0; Plant response rating, Ragweed [4, 20]: 0; Ragweed plant response rating [4, 13]: 20; Plant response rating, Ragweed [4, 15]: 30; Ryegrass, Italian plant response rating [5, 13]: 0; Plant response rating, Ryegrass, Italian [5, 15]: 0; Wheat plant response rating ([6]; 500 g ai/ha): 0; Plant response rating, Blackgrass [7, 21]: 0; Blackgrass plant response rating ([7]; 500 g ai/ha): 20; Plant response rating, Galium [8, 21]: 20; Galium plant response rating ([8]; 500 g ai/ha): 70 |

— patent US10597388B2, “Pyridazinone herbicides” (FMC CORPORATION, priority 2014, dated 2020)
